Source: US6441027B1, “Method of regulating the female reproductive system through angiogenesis inhibitors” (Children's Medical Center Corporation, priority 1996, dated 2002)
Entries after “also recorded” stand apart in the source; their conditions may differ.

Columns and labels:
Type in all cases: in vivo, mouse
inseminated mice [1] = experiment: Number of implantation sites after single dose pre-implantation; details: 30 mg/kg on E1, n=16
Experimental: The same procedures were followed as described above in Example 2 to administer 30 mg/kg AGM-1470 in single doses on the specified days. The mice were sacrificed and the number of implantation cites were counted. There was no decrease in the number of implantation cites when AGM-1470 was given on E1 [control mice had 8±0.2 implants (n=29), mice injected with AGM-1470 on E1 had 9±0.4 implants (n=16)].

inseminated mice [2] = experiment: Inseminated mice, single low dose 3 mg/kg
Experimental: The same protocol was followed as was performed for AGM-1470 30 mg/kg except mice were injected with only 3 mg/kg AGM-1470 on E1 or E7. The 10-fold lower dose was tested to determine if a dose in which the fetuses come to term would produce birth defects. Mice were sacrificed at E18 and fetal viability, number of implantation cites, crown-rump length, and tail length were assessed.

gravid uteri = experiment: Gravid uterine weight after single dose
Excerpt: C57BL/6 male and female mice greater than seven weeks old were obtained from Takonic (Germantown, N.Y.). The mice were acclimated for at least five days prior to mating and housed in a twelve hour on and twelve hour off light schedule. The mice were mated in the evenings and vaginal plugs were checked for the next morning. Mating in mice is normally detected by the occurrence of vaginal plugs, which are formed by a mixture of the secretions of the vesicular and coagulating glands of the male and usually fill the vagina from cervix to vulva. The day of plugging was labeled Embryonic day 0 (E0). All animal studies were conducted according to the protocols approved by the Animal Ethics Committee of Children's Hospital. Plugged female mice were randomized and received either AGM-1470 30 mg/kg s.c. or saline on E1, 7, or 14. The dependence of female reproductive system on angiogenesis was examined by treating sexually mature inseminated and cycling mice with selective angiogenesis inhibitor AGM-1470.
Gravid uteri and ovaries were resected enbloc and weighed. Gravid uterine weight (grams wet weight, mean SE, n=3/day) in the control group increased exponentially from E6 (0.20±0.01), to E9 (0.53±0.05), E13 (3.78±0.36), and E18 (12.87±0.62). Gravid uterine weights from mice treated with AGM-1470 on E1 had no weight increase after E9 [E6 (0.29±0.01), E9 (0.63±0.01), E13 (0.72±0.08, p<0.05), and E18 (0.68±0.02, p<0.05)]. Gravid uterine weights from mice treated with AGM-1470 on E7 increased initially but then regresses after E13 [E9 (0.71±0.01), E13 (2.03±0.14, p<0.05), and E18 (1.08±0.06, p<0.05)].

[3] = tested on: non-pregnant cycling mice; experiment: Cycling mice, chronic treatment: estrous cycle and mating
Excerpt: Female mice were housed individually in cages and acclimated for one week. The stage of the estrous cycles was checked by visual inspection of the vagina according to the criteria of Champlin^28 and the examiner was blinded to the treatment group. Determining the stage of the estrous cycle in the mouse by the appearance of the vagina. Animals were monitored daily and graded for color, size of opening, striations and swelling. Based on these observations each individual was assigned to a cycle stage (diestrus, proestrus, estrus, or metestrus).
(§1) Mice were randomized and received either AGM-1470 30 mg/kg s.c. or saline 0.1 ml s.c. every other day for 16 days (approximately four estrous cycles). On the last of four days of treatment mice were housed with male mice to see if successful mating and conception would occur. On day 16 mice were weighed and sacrificed by cervical dislocation. The ovaries were resected enbloc, fixed in Carnoy's fixative, and embedded in paraffin according to standard histologic techniques. Sections were cut at 6 microns and stained with hematoxylin and eosin.

corpora lutea = experiment: Cycling mice, chronic treatment: examination of the ovaries; details: 30 mg/kg every other day for 16 days
Experimental: as §1

intersite endometrium = experiment: Factor VIII microvessel density of intersite endometrium on E6
Experimental: To test this hypothesis, mice were treated with AGM-1470 on E1 and sacrificed at E6, a time point prior to placental formation. The uteri of the mice were examined by antibodies to Factor VIII and PCNA to determine if there was any difference in the degree of endometrial angiogenesis or the proliferative response of the decidua induced by trophoblast invasion. However, in the decidua there was a 50% decrease in the proliferation of stromal cells in the AGM-1470 treated mice as compared to control (PCNA staining/X630 field in control was 48%±3, n=4, versus 24%±5, n=4, P≦0.005 in AGM-1470 treated mice. See FIG. 4A and 4B). […]
To determine microvessel density, Carnoy's-fixed tissue sections were pretreated with 2 microgram/ml Proteinase K (Boehringer Mannheim, Mannheim, Germany) at 37° Celsius for 15 minutes before staining with a rabbit polyclonal antibody against mouse factor VIII (Dako, Carpinteria, Calif.). Positive staining was detected by incubating sequentially with a secondary antibody against rabbit conjugated to horseradish peroxidase (Dako) and diaminobenzidine tetrahydrochloride (DAB) (Dako) as a chromagen. […] Microvessel density was determined by light microscopy. Each count was expressed as the number of microvessels identified within a selected field. Ten fields per section were counted. […]

CO[C@@H]1[C@H](OC(=O)NC(=O)CCl)CC[C@]2(CO2)[C@H]1[C@@]1(C)O[C@@H]1CC=C(C)C [AGM-1470, O-chloroacetylcarbamoyl fumagillol]
number of implantation sites (inseminated mice [1]): 9±0.4 implants | reduction of crown-rump length on E18 relative to control (inseminated mice [2]; 3 mg/kg on E1): 36% | reduction of tail length relative to control (inseminated mice [2]; 3 mg/kg on E1): 43% | fetal viability at E18 (inseminated mice [2]; 3 mg/kg on E1 (n=21 fetuses) or E7 (n=8 fetuses)): viable | crown-rump length on E18 (inseminated mice [2]; 3 mg/kg on E1, n=7 embryos): 13.0±0.1 mm | birth defects (inseminated mice [2]; 3 mg/kg on E1 or E7, fetuses at E18): no birth defects | reduction of crown-rump length on E18 relative to control (inseminated mice [2]; 3 mg/kg on E7): 19% | reduction of tail length relative to control (inseminated mice [2]; 3 mg/kg on E7): 12% | crown-rump length on E18 (inseminated mice [2]; 3 mg/kg on E7, n=7 embryos): 16.5±0.5 mm | tail length on E18 (inseminated mice [2]; 3 mg/kg on E7, n=7 embryos): 10.0±0.1 mm | gravid uterine weight (gravid uteri; treated on E1, weighed E6, n=3): 0.29±0.01 grams wet weight | gravid uterine weight (gravid uteri; treated on E1, weighed E9, n=3): 0.63±0.01 grams wet weight | gravid uterine weight (gravid uteri; treated on E1, weighed E13, n=3): 0.72±0.08 grams wet weight | gravid uterine weight (gravid uteri; treated on E1, weighed E18, n=3): 0.68±0.02 grams wet weight | gravid uterine weight (gravid uteri; treated on E7, weighed E9, n=3): 0.71±0.01 grams wet weight | gravid uterine weight (gravid uteri; treated on E7, weighed E13, n=3): 2.03±0.14 grams wet weight | gravid uterine weight (gravid uteri; treated on E7, weighed E18, n=3): 1.08±0.06 grams wet weight | first occurrence of abnormal (closed, red, dry) vaginal morphology ([3]; 30 mg/kg s.c. every other day): 5.6±3.2 days of treatment | mice with new vaginal morphology within 10 days of start of treatment ([3]; 30 mg/kg s.c. every other day): 8 of 8 | effect on estrous cycle ([3]; 30 mg/kg s.c. every other day for 16 days): interruption of the normal estrous cycle | time to full recovery after drug was discontinued ([3]; chronic high dose, sexually mature cycling mice): 7 weeks | successful mating (plugging) ([3]; housed with males on last four days of 16 day treatment): no visually evident plugging | corpora lutea smaller than control (corpora lutea): 61% | number of corpora lutea (corpora lutea; vs control): fewer; also recorded: decreased size and number of corpora lutea | decrease in microvessel density in intersite endometrium vs control (intersite endometrium; treated on E1, sacrificed E6): 52% | microvessel density in intersite endometrium (intersite endometrium; treated on E1, sacrificed E6, n=4): 57±13 vessels/X250 field
